Reference: ChEMBL document CHEMBL1132459, “Design of MKC-442 (emivirine) analogues with improved activity against drug-resistant HIV mutants” (J Med Chem, 1999)

Experiments:
Details in all cases: Homo sapiens
HeLa [1] = assay: Compound was tested for its cytotoxicity depending on the viability of mock-infected cells; format: functional
HeLa [2] = assay: Compound was tested for its inhibition of HIV-1 induced focus formation in MAGI-CCR5 cells in strains like NL4-3K103N; format: functional, cell-based
HeLa [3] = assay: Compound was tested for its inhibition of HIV-1 induced focus formation in MAGI-CCR5 cells in strains like IIIB; format: functional, cell-based
HeLa [4] = assay: Compound was tested for its inhibition of HIV-1 induced focus formation in MAGI-CCR5 cells in strains like IIIB-R(Y181C); format: functional, cell-based
HeLa [5] = assay: Compound was tested for its inhibition of HIV-1 induced focus formation in MAGI-CCR5 cells in strains like NL4-3; format: functional, cell-based

Row | Compound | CC50 (HeLa [1]) | EC50 (HeLa [2]) | EC50 (HeLa [3]) | EC50 (HeLa [4]) | EC50 (HeLa [5])
1 | CCOCn1c(Cc2ccccc2)c(C(C)C)c(=O)[nH]c1=O [EMIVIRINE] | > 100000 nM | 1260 nM | 4 nM | 13400 nM | 1 nM
2 | CCOCn1c(SC2CCCCC2)c(C(C)C)c(=O)[nH]c1=O | 74800 nM | 250 nM | 3 nM | 270 nM | 3 nM
3 | CCOCn1c(Cc2cc(C)cc(C)c2)c(C(C)C)c(=O)[nH]c1=O | 52500 nM | 40 nM | 1 nM | 180 nM | 1 nM
